Consider ten compounds from US20230365533A1, “BICYCLOHEPTANE PYRROLIDINE OREXIN RECEPTOR AGONISTS” (MERCK SHARP & DOHME CORP., priority 2021, published 2023).

pIC50: −log10 of the molar value.

In this assay the target is T1, human OX2R (Homo sapiens, UniProt O43614).
T1 construct: expressed in transfected cells; host or cells: CHO (Chinese hamster ovary) cells, grown under G418 selection
T1 sequence (O43614 1-444): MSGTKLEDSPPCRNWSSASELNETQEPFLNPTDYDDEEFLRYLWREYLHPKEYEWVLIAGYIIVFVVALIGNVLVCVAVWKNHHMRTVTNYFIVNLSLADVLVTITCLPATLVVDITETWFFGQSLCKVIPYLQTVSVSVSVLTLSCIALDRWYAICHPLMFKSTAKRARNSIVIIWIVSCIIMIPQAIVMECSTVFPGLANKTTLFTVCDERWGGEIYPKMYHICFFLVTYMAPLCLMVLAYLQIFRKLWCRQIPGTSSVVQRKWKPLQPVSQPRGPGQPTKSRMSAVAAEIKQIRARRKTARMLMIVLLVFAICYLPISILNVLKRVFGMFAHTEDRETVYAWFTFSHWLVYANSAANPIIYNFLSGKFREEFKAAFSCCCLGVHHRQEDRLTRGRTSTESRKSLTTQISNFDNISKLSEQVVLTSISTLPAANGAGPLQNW
Put plainly: IPOne (IP-1) orexin receptor agonist assay in CHO cells expressing human OX2R. Format: cell-based. The conditions noted are these: IPOne assay, CHO cells expressing human OX2R, 2 hours incubation; read-out: hoX2R_IP IC50. A digest of the protocol:
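CHO cells with human OX2R treated 2 h at 37 °C with 10-point ½-log compound dilutions in stimulation buffer; IP-1 accumulation read by HTRF (665/620 nm) after 60 min detection. EC50 from four-parameter fit; % effect versus a 1 uM reference agonist.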
On to `C[C@@H]1C[C@H](NS(C)(=O)=O)[C@H](CO[C@H]2CC[C@@]3(c4ncc(F)cn4)C[C@H]3C2)N1C(=O)OCC(F)F` [Example 66, 2,2-difluoroethyl (2R,3S,5R)-2-((((1S,3S,6R)-6-(5-fluoropyrimidin-2-yl)bicyclo[4.1.0]heptan-3-yl)oxy)methyl)-5-methyl-3-(methylsulfonamido)pyrrolidine-1-carboxylate], for which the pIC50 was 9.22.
As for `COC(=O)N1[C@H](C)C[C@H](NS(C)(=O)=O)[C@@H]1COC1CCC2(c3nc4c(F)ccc(F)c4s3)CC2C1` (stereo partly drawn) [Example 71, methyl (2R,3S,5R)-2-(((6-(4,7-difluorobenzo[d]thiazol-2-yl)bicyclo[4.1.0]heptan-3-yl)oxy)methyl)-5-methyl-3-(methylsulfonamido)pyrrolidine-1-carboxylate], the pIC50 is 6.08.
With `COC(=O)N1[C@H](C)C[C@H](NS(C)(=O)=O)[C@@H]1COC1CCC2(c3ncc(Cl)c(C(F)(F)F)n3)CC2C1` (stereo partly drawn) [Example 72, methyl (2R,3S,5R)-2-(((6-(5-chloro-4-(trifluoromethyl)pyrimidin-2-yl)bicyclo[4.1.0]heptan-3-yl)oxy)methyl)-5-methyl-3-(methylsulfonamido)pyrrolidine-1-carboxylate] the figure was 6.73.
As to `COC(=O)N1[C@H](C)C[C@H](NS(C)(=O)=O)[C@@H]1COC1CCC2(c3ncc(F)c(C(F)F)n3)CC2C1` (stereo partly drawn) [Example 73, methyl (2R,3S,5R)-2-(((6-(4-(difluoromethyl)-5-fluoropyrimidin-2-yl)bicyclo[4.1.0]heptan-3-yl)oxy)methyl)-5-methyl-3-(methylsulfonamido)pyrrolidine-1-carboxylate], the pIC50 was 6.66.
`COC(=O)N1[C@H](C)C[C@H](NS(C)(=O)=O)[C@@H]1COC1CCC2(c3ncc(F)c(C4CC4)n3)CC2C1` (stereo partly drawn) [Example 74, methyl (2R,3S,5R)-2-(((6-(4-cyclopropyl-5-fluoropyrimidin-2-yl)bicyclo[4.1.0]heptan-3-yl)oxy)methyl)-5-methyl-3-(methylsulfonamido)pyrrolidine-1-carboxylate]: the pIC50 is 6.52.
With `COC(=O)N1[C@H](C)C[C@H](NS(C)(=O)=O)[C@@H]1COC1CCC2(c3ncc(OC(F)F)c(C)n3)CC2C1` (stereo partly drawn) [Example 75, methyl (2R,3S,5R)-2-(((6-(5-(difluoromethoxy)-4-methylpyrimidin-2-yl)bicyclo[4.1.0]heptan-3-yl)oxy)methyl)-5-methyl-3-(methylsulfonamido)pyrrolidine-1-carboxylate], the pIC50 was 6.59.
Consider `COC(=O)N1[C@H](C)C[C@H](NS(C)(=O)=O)[C@@H]1COC1CCC2(c3ncc(F)c(OC)n3)CC2C1` (stereo partly drawn) [Example 76, methyl (2R,3S,5R)-2-(((6-(5-fluoro-4-methoxypyrimidin-2-yl)bicyclo[4.1.0]heptan-3-yl)oxy)methyl)-5-methyl-3-(methylsulfonamido)pyrrolidine-1-carboxylate], for which the pIC50 was 7.29.
With `COC(=O)N1[C@H](C)C[C@H](NS(C)(=O)=O)[C@@H]1COC1CCC2(c3ncc(F)c(C)n3)CC2C1` (stereo partly drawn) [Example 77, methyl (2R,3S,5R)-2-(((6-(5-fluoro-4-methylpyrimidin-2-yl)bicyclo[4.1.0]heptan-3-yl)oxy)methyl)-5-methyl-3-(methylsulfonamido)pyrrolidine-1-carboxylate] the figure was 6.13.
As to `CC(C)OC(=O)N1[C@H](C)C[C@H](NS(=O)(=O)C(F)F)[C@@H]1COC1CCC2(c3ncc(Cl)cn3)CC2C1` (stereo partly drawn) [Example 82, isopropyl (2R,3S,5R)-2-(((6-(5-chloropyrimidin-2-yl)bicyclo[4.1.0]heptan-3-yl)oxy)methyl)-3-((difluoromethyl)sulfonamido)-5-methylpyrrolidine-1-carboxylate], the pIC50 is 7.97.
With `COC(=O)N1[C@H](C)C[C@H](NS(=O)(=O)CF)[C@@H]1COC1CCC2(c3ncc(F)c(OC)n3)CC2C1` (stereo partly drawn) [Example 85, methyl (2R,3S,5R)-2-(((6-(5-fluoro-4-methoxypyrimidin-2-yl)bicyclo[4.1.0]heptan-3-yl)oxy)methyl)-3-((fluoromethyl)sulfonamido)-5-methylpyrrolidine-1-carboxylate] the figure was 7.60.
